Reference: the supplement of paper PMC12137928
Structures can show the parent of a compound that is named as a salt.

Tested on: HCT116
Settings: 72 h
Summary of the method: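 HCT116 cells were seeded at 250 per well in 1536-well plates with 5 h allowed for attachment. CellTiter-Glo luminescence was normalized against vehicle (0%) and positive control (-100%) before pattern correction. The IC50 and maximal efficacy figures derive from four-parameter Hill fits.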

SMILES	IC50 cell viability (ICRF193 0 nM)	IC50 cell viability (ICRF193 200 nM)
Nc1nc(-n2cc(C(=O)O)c(=O)c3cc(F)c(N4CC(O)C4)c(Cl)c32)c(F)cc1F [Delafloxacin (meglumine)]	> 45.8 µM	> 45.8 µM
C[C@]1(COc2ccc(N3CCC(Oc4ccc(OC(F)(F)F)cc4)CC3)cc2)Cn2cc([N+](=O)[O-])nc2O1 [Delamanid]	> 45.8 µM	> 45.8 µM
CCOC(=O)[C@H](CCc1ccccc1)N[C@@H](C)C(=O)N(CC(=O)O)C1Cc2ccccc2C1 [Delapril hydrochloride]	> 45.8 µM	> 45.8 µM
CC(C)Nc1cccnc1N1CCN(C(=O)c2cc3cc(NS(C)(=O)=O)ccc3[nH]2)CC1 [Delavirdine]	> 45.8 µM	> 45.8 µM
CN(CCCCCCCCCCN(C)C(=O)Oc1cccc([N+](C)(C)C)c1)C(=O)Oc1cccc([N+](C)(C)C)c1 [Demecarium bromide]	> 45.8 µM	> 45.8 µM
CC[N+](CC)(CC(=O)Nc1c(C)cccc1C)Cc1ccccc1 [Denatonium benzoate]	> 45.8 µM	> 45.8 µM
CC(=O)OCC(=O)[C@H]1CC[C@H]2[C@@H]3CCC4=CC(=O)CC[C@]4(C)[C@H]3CC[C@]12C [Deoxycorticosterone acetate]	> 45.8 µM	> 45.8 µM
CCCCNc1ccc(C(=O)OCCN(CC)CC)cc1 [Depolipon]	> 45.8 µM	> 45.8 µM
COc1ccc(-c2cc(C(F)F)nn2-c2ccc(S(N)(=O)=O)cc2)cc1F [Deracoxib]	> 45.8 µM	> 45.8 µM
CN1C(=O)[C@]23C[C@H]4C(C)(C)[C@]5(CNc6c5ccc5c6OC=CC(C)(C)O5)C[C@@]41CN2CC[C@@]3(C)O [Derquantel]	> 45.8 µM	> 45.8 µM
Clc1ccc2c(c1)CCc1cccnc1C2=C1CCNCC1 [Desloratadine]	> 45.8 µM	> 45.8 µM
N=C(N)NCCC[C@@H](NC(=O)[C@@H]1CCCN1C(=O)[C@@H]1CSSCCC(=O)N[C@@H](Cc2ccc(O)cc2)C(=O)N[C@@H](Cc2ccccc2)C(=O)N[C@@H](CCC(N)=O)C(=O)N[C@@H](CC(N)=O)C(=O)N1)C(=O)NCC(N)=O [Desmopressin (Acetate)]	> 45.8 µM	> 45.8 µM
C#C[C@]1(O)CC[C@H]2[C@@H]3CCC4=CCCC[C@@H]4[C@H]3C(=C)C[C@@]21CC [Desogestrel]	> 45.8 µM	> 45.8 µM
CC1(C)O[C@@H]2C[C@H]3[C@@H]4CCC5=CC(=O)C=C[C@]5(C)[C@H]4[C@@H](O)C[C@]3(C)[C@]2(C(=O)CO)O1 [Desonide]	> 45.8 µM	> 45.8 µM
C[C@@H]1C[C@H]2[C@@H]3CCC4=CC(=O)C=C[C@]4(C)[C@@]3(F)[C@@H](O)C[C@]2(C)[C@H]1C(=O)CO [Desoximetasone]	> 45.8 µM	> 45.8 µM
CC(C)(C)C(=O)OCC(=O)[C@H]1CC[C@H]2[C@@H]3CCC4=CC(=O)CC[C@]4(C)[C@H]3CC[C@]12C [Desoxycorticosterone Pivalate]	> 45.8 µM	> 45.8 µM
Cc1cccc(Cc2c[nH]cn2)c1C [Detomidine hydrochloride]	> 45.8 µM	> 45.8 µM
CCCCCCCCCCCCCCCC(=O)OCC(=O)[C@@]1(O)[C@H](C)C[C@H]2[C@@H]3CCC4=CC(=O)C=C[C@]4(C)[C@@]3(F)[C@@H](O)C[C@@]21C [Dexamethasone 21-Palmitate]	> 45.8 µM	> 45.8 µM
C[C@@H]1C[C@H]2[C@@H]3CCC4=CC(=O)C=C[C@]4(C)[C@@]3(F)[C@@H](O)C[C@]2(C)[C@@]1(O)C(=O)COP(=O)(O)O [Dexamethasone 21-phosphate disodium salt]	> 45.8 µM	> 45.8 µM
CC(=O)OCC(=O)[C@@]1(O)[C@H](C)C[C@H]2[C@@H]3CCC4=CC(=O)C=C[C@]4(C)[C@@]3(F)[C@@H](O)C[C@@]21C [Dexamethasone acetate]	> 45.8 µM	> 45.8 µM
C[C@@H]1C[C@H]2[C@@H]3CCC4=CC(=O)C=C[C@]4(C)[C@@]3(F)[C@@H](O)C[C@]2(C)[C@@]1(O)C(=O)COC(=O)c1ccncc1 [Dexamethasone isonicotinate]	> 45.8 µM	> 45.8 µM
C[C@@H]1C[C@H]2[C@@H]3CCC4=CC(=O)C=C[C@]4(C)[C@@]3(F)[C@@H](O)C[C@]2(C)[C@@]1(O)C(=O)CO [Dexamethasone]	> 45.8 µM	> 45.8 µM
CN(C)CC[C@@H](c1ccc(Cl)cc1)c1ccccn1 [Dexchlorpheniramine hydrochloride]	> 45.8 µM	> 45.8 µM
Cc1cccc([C@H](C)c2c[nH]cn2)c1C [Dexmedetomidine]	> 45.8 µM	> 45.8 µM
CC(C)(CO)[C@@H](O)C(=O)NCCCO [Dexpanthenol]	> 45.8 µM	> 45.8 µM
